# Reference: patent US20260250290A1 (BRISTOL-MYERS SQUIBB COMPANY, priority 2023, published 2026)
# Counter-ions that a name gives are not always drawn.
# Target: T1, full length SGK1 (Homo sapiens, UniProt O00141)
# T1 construct: 125 μM full length SGK1 (Life Technologies Part #PR7358A); purchased Life Technologies PR7358A
# T1 sequence (O00141 1-431): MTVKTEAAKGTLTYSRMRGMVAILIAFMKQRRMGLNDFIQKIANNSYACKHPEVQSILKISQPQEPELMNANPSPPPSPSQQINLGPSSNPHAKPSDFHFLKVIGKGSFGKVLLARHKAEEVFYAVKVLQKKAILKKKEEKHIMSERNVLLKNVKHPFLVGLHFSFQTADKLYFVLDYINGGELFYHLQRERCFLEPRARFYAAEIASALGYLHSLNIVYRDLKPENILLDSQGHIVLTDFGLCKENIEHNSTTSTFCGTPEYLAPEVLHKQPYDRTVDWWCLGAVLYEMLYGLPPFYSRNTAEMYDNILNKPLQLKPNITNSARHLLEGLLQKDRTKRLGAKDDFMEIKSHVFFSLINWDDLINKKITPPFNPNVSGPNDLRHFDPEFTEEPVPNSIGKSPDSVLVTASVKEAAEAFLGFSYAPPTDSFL
# Assay: SGK1 inhibition Assay A (Caliper LabChip electrophoretic separation of fluorescent peptide substrate and phosphorylated product)
# Type: biochemical
# Conditions: Assay A; 20 μM ATP, 40 min incubation; read-out: SGK1 IC50
row,IC50 [nM],Molecule
1,250,"CN1CCC(c2cc(C(F)F)sc2C(=O)N[C@@H]2CCCN(c3cc(-c4ccc(C#N)nc4)n4ncnc(N)c34)C2)C1 (stereo partly drawn) [Example 401, N-((R)-1-(4-amino-7-(6-cyanopyridin-3-yl)pyrrolo [2,1-f][1,2,4]triazin-5-yl)piperidin-3-yl)-5-(difluoromethyl)-3-(1-methylpyrrolidin-3-yl)thiophene-2-carboxamide]"
2,197,CC(=O)N1CC=C(c2cc(N3CCC[C@@H](NC(=O)c4sc(C(F)F)cc4C4CCN(C)CC4)C3)c3c(N)ncnn23)C1 [Example 393]
3,44,"CC(C)Cn1cc(-c2cc(N3CCC[C@@H](NC(=O)c4ccc(C(F)F)s4)C3)c3c(N)ncnn23)ccc1=O [Example 510, (R)-N-(1-(4-amino-7-(1-isobutyl-6-oxo-1,6-dihydropyridin-3-yl)pyrrolo[2,1-f][1,2,4]triazin-5-yl)piperidin-3-yl)-5-(difluoromethyl)thiophene-2-carboxamide]"
4,2,"Nc1ncnn2c(-c3ccnc(C(F)F)c3)cc(N3CCC[C@@H](NC(=O)c4sc(Cl)cc4OC4CCNCC4)C3)c12 [Example 588, (R)-N-(1-(4-amino-7-(2(difluoromethyl)pyridin-4-yl)pyrrolo[2,1-f][1,2,4]triazin-5-yl)piperidin-3-yl)-5-chloro-3-(piperidin-4-yloxy)thiophene-2-carboxamide]"
5,28,"COCC(=O)N1CC=C(c2cc(N3CCC[C@@H](NC(=O)c4sc(Cl)cc4OCCN4CCOCC4)C3)c3c(N)ncnn23)C1 [Example 259, (R)—N-(1-(4-amino-7-(1-(2-methoxyacetyl)-2,5-dihydro-1H-pyrrol-3-yl)pyrrolo[2,1-f][1,2,4]triazin-5-yl)piperidin-3-yl)-5-chloro-3-(2-morpholinoethoxy)thiophene-2-carboxamide]"
6,49,"CS(=O)(=O)c1ccc(-c2cc(N3CCC[C@@H](NC(=O)c4cc5c(s4)CCCC5)C3)c3c(N)ncnn23)cc1 [Example 90, (R)-N-(1-(4-amino-7-(4-(methylsulfonyl)phenyl)pyrrolo[2,1-f][1,2,4]triazin-5-yl)piperidin-3-yl)-4,5,6,7-tetrahydrobenzo[b] thiophene-2-carboxamide]"
7,0.3,N#Cc1ccc(-c2cc(N3CCC[C@@H](NC(=O)c4ccc(Cl)s4)C3)c3c(N)ncnn23)cn1 [Example 241]
8,20,"CC(=O)Nc1cccc(-c2cc(N3CCC[C@@H](NC(=O)c4ccc(Cl)s4)C3)c3c(N)ncnn23)c1 [Example 208, (R)-N-(1-(7-(3-acetamidophenyl)-4-aminopyrrolo[2,1-f][1,2,4]triazin-5-yl)piperidin-3-yl)-5-chlorothiophene-2-carboxamide]"
9,5,"CC(=O)N1CC=C(c2cc(N3CCC[C@@H](NC(=O)c4sc(Cl)cc4OC4CCN(C)CC4F)C3)c3c(N)ncnn23)C1 (stereo partly drawn) [Example 604, N-((R)-1-(7-(1-acetyl-2,5-dihydro-1H-pyrrol-3-y1)-4-aminopyrrolo[2,1-f][1,2,4]triazin-5-yl)piperidin-3-y1)-5-chloro-3-((3-fluoro-1-methylpiperidin-4-yl)oxy)thiophene-2-carboxamide]"
10,18,COc1c(-c2cc(N3CCC[C@@H](NC(=O)c4ccc(Cl)s4)C3)c3c(N)ncnn23)ccnc1F [Example 227]
11,43,Nc1ncnn2c(C3=CCC(F)(F)CC3)cc(N3CCC[C@@H](NC(=O)c4ccc(Cl)s4)C3)c12 [Example 239]
12,12,Nc1ncnn2c(-c3ccc4ncnn4c3)cc(N3CCC[C@@H](NC(=O)c4ccc(Cl)s4)C3)c12 [Example 247]
13,1,"Nc1ncnn2c(-c3ccc(-n4cnnn4)c(F)c3)cc(N3CCC[C@@H](NC(=O)c4ccc(Cl)s4)C3)c12 [Example 245, (R)-N-(1-(4-amino-7-(3-fluoro-4-(1H-tetrazol-1-yl)phenyl)pyrrolo[2,1-f][1,2,4]triazin-5-yl)piperidin-3-yl)-5-chlorothiophene-2-carboxamide]"
14,7,"Nc1ncnn2c(-c3ccc(=O)[nH]c3)cc(N3CCC[C@@H](NC(=O)c4ccc(Cl)s4)C3)c12 [Example 536, (R)-N-(1-(4-amino-7-(6-oxo-1,6-dihydropyridin-3-yl)pyrrolo[2,1-f][1,2,4]triazin-5-yl)piperidin-3-yl)-5-chlorothiophene-2-carboxamide]"
15,21,"CN(C)CCOc1cc(C2CC2)sc1C(=O)N[C@@H]1CCCN(c2cc(-c3ccc(=O)n(CC(F)F)c3)n3ncnc(N)c23)C1 [Example 375, (R)-N-(1-(4-amino-7-(1-(2,2-difluoroethyl)-6-oxo-1,6-dihydropyridin-3-yl)pyrrolo[2,1-f] [1,2,4]triazin-5-yl)piperidin-3-yl)-5-cyclopropyl-3-(2-(dimethylamino)ethoxy)thiophene-2-carboxamide]"
16,21,"COC(=O)NCCOc1cc(C(F)F)sc1C(=O)N[C@@H]1CCCN(c2cc(C3=CCN(C(=O)OC)C3)n3ncnc(N)c23)C1 [Example 428, Methyl (R)-3-(4-amino-5-(3-(5-(difluoromethyl)-3-(2-((methoxycarbonyl)amino)ethoxy)thiophene-2-carboxamido)piperidin-1-yl)pyrrolo[2,1-f][1,2,4]triazin-7-yl)-2,5-dihydro-1H-pyrrole-1-carboxylate]"
17,21,"N#Cc1ccc(-c2cc(N3CCC[C@@H](NC(=O)c4cc5ccccc5[nH]4)C3)c3c(N)ncnn23)cn1 [Example 509, (R)-N-(1-(4-amino-7-(6-cyanopyridin-3-yl)pyrrolo[2,1-f][1,2,4]triazin-5-yl)piperidin-3-yl)-1H-indole-2-carboxamide]"
18,8,"Nc1ncnn2c(C3=CCN(C(=O)[C@@H]4CCCO4)C3)cc(N3CCC[C@@H](NC(=O)c4ccc(Cl)s4)C3)c12 [Example 903, N-((R)-1-(4-amino-7-(1-((S)-tetrahydrofuran-2-carbony1)-2,5-dihydro-1H-pyrrol-3-yl)pyrrolo[2,1-f][1,2,4]triazin-5-yl)piperidin-3-y1)-5-chlorothiophene-2-carboxamide]"
19,27,Cc1ccc(C(=O)N[C@@H]2CCCN(c3cc(C4=CN(S(C)(=O)=O)CC4)n4ncnc(N)c34)C2)s1 [Example 125]
20,32,"CC(=O)N1CC=C(c2cc(N3CCC[C@@H](NC(=O)c4cccc(N5CCNCC5)n4)C3)c3c(N)ncnn23)C1 [Example 813, (R)—N-(1-(7-(1-acetyl-2,5-dihydro-1H-pyrrol-3-yl)-4-aminopyrrolo[2,1-f][1,2,4]triazin-5-yl)piperidin-3-yl)-6-(piperazin-1-yl)picolinamide]"
21,11,"CS(=O)(=O)c1ccc(-c2cc(N3CCC[C@@H](NC(=O)c4ccnc(F)c4)C3)c3c(N)ncnn23)cc1 [Example 32, (R)-N-(1-(4-amino-7-(4-(methylsulfonyl)phenyl)pyrrolo[2,1-f][1,2,4]triazin-5-yl)piperidin-3-yl)-2-fluoroisonicotinamide, TFA]"
22,9,"Nc1ncnn2c(-c3ccnc(C(F)(F)F)c3)cc(N3CCC[C@@H](NC(=O)c4sc(Cl)cc4OCCN4CCOCC4)C3)c12 [Example 267, (R)—N-(1-(4-amino-7-(2-(trifluoromethyl)pyridin-4-yl)pyrrolo[2,1-f][1,2,4]triazin-5-yl)piperidin-3-yl)-5-chloro-3-(2-morpholinoethoxy)thiophene-2-carboxamide]"
23,51,CC(=O)N1CC=C(c2cc(N3CCC[C@@H](NC(=O)c4ccn(CC(F)F)n4)C3)c3c(N)ncnn23)C1 [Example 743]
24,17,"CN(C)CCOc1cc(C(F)F)sc1C(=O)N[C@@H]1CCCN(c2cc(-c3ccc(=O)n(CC(F)F)c3)n3ncnc(N)c23)C1 [Example 309, (R)-N-(1-(4-amino-7-(1-(2,2-difluoroethyl)-6-oxo-1,6-dihydropyridin-3-yl)pyrrolo[2,1-f][1,2,4]triazin-5-yl)piperidin-3-yl)-5-(difluoromethyl)-3-(2-(dimethylamino)ethoxy)thiophene-2-carboxamide]"
25,14,"CN(C)CCOc1cc(Cl)sc1C(=O)N[C@@H]1CCCN(c2cc(C3=CCN(C(=O)C4CCCOC4)C3)n3ncnc(N)c23)C1 (stereo partly drawn) [Example 909, N-((3R)-1-(4-amino-7-(1-(tetrahydro-2H-pyran-3-carbonyl)-2,5-dihydro-1H-pyrrol-3~yl)pyrrolo[2,1-f][1,2,4]triazin-5-y1)piperidin-3-y1)-5-chloro-3-(2-(dimethylamino)ethoxy)thiophene-2-carboxamide]"
26,32,"CC1(C)CC1C(=O)N1CC=C(c2cc(N3CCC[C@@H](NC(=O)c4sc(Cl)cc4OCCN4CCOCC4)C3)c3c(N)ncnn23)C1 (stereo partly drawn) [Example 261, N-((3R)-1-(4-amino-7-(1-(2,2-dimethylcyclopropane-1-carbonyl)-2,5-dihydro-1H-pyrrol-3-yl)pyrrolo[2,1-f] [1,2,4]triazin-5-yl)piperidin-3-yl)-5-chloro-3-(2-morpholinocthoxy)thiophene-2-carboxamide]"
27,24,"CC(=O)N1CC=C(c2cc(N3CCC[C@@H](NC(=O)c4sc(C)nc4OC4CCN(C)CC4)C3)c3c(N)ncnn23)C1 [Example 357, (R)—N-(1-(7-(1-acetyl-2,5-dihydro-1H-pyrrol-3-yl)-4-aminopyrrolo[2,1-f][1,2,4]triazin-5-yl)piperidin-3-yl)-2-methyl-4-((1-methylpiperidin-4-yl)oxy)thiazole-5-carboxamide]"
28,494,CC(=O)N1CC=C(c2cc(N3CCC[C@@H](NC(=O)c4nccn4C)C3)c3c(N)ncnn23)C1 [Example 708]

row,Molecule,IC50 [nM]
1,"methyl 3-(4-amino-5-((3R)-3-(5-chloro-3-((2-methylpiperidin-4-yl)oxy)thiophene-2-carboxamido)piperidin-1-yl)pyrrolo[2,1-f][1,2,4]triazin-7-yl)-2,5-dihydro-1H-pyrrole-1-carboxylate [Example 621]",6
